Values of other authors as cited in publication PMC11010885, “Functional Analysis and Tissue-Specific Expression of Calcitonin and CGRP with RAMP-Modulated Receptors CTR and CLR in Chickens” (Animals : an Open Access Journal from MDPI, 2024).

System: RAMP1- and RAMP3-derived amylin receptors
Settings: ref [51],[53]; cited from earlier work
Protocol: In mammals, CTR functions as a receptor for three distinct hormones: CT, CGRP, and amylin (not explored in this study). The specific affinity spectrum is determined by its co-expression with RAMPs. Although CTR alone is a receptor for CT that is involved in bone homeostasis, CTRs in complex with RAMP1–3 are high-affinity receptors for amylin, a peptide involved in the regulation of food intake. […] The CTR + RAMP1 complex is a ...

Substance | affinity
rat amylin: rat amylin, cited from the literature | moderate affinity
human CT: human CT, cited from the literature | low affinity
